The results in this text go back to ChEMBL document CHEMBL1275523 (Antimicrob Agents Chemother, 2008).

Some results are limits rather than exact numbers.

Common to all, as to assay type: cell-based
The target of one test is Sialidase-1 (Homo sapiens, UniProt Q99519). The experiment in a line: Inhibition of human NEU1 expressed in HEK293 cells by fluorometric high-performance liquid chromatography using 4MU-NeuAc substrate.
Test [1] addresses T1, Sialidase-3 (Homo sapiens, UniProt Q9UQ49).
T1 sequence (Q9UQ49 whole entry): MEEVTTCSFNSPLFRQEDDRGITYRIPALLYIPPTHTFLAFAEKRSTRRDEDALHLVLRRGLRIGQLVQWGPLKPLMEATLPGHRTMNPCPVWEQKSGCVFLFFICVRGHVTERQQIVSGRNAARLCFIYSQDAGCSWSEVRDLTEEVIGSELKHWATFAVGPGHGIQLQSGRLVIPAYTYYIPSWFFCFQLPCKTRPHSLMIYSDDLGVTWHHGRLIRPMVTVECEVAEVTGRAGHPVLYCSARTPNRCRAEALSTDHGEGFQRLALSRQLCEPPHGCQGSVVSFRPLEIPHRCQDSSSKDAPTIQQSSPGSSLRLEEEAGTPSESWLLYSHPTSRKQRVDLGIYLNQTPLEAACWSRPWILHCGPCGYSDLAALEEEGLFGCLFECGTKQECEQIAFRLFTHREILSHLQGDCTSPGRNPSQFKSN
As to the kind of experiment: Inhibition of human NEU3 expressed in HEK293 cells by fluorometric high-performance liquid chromatography using ganglioside GM3 substrate.

Test [2] deals with T1, Sialidase-3. The experiment in a line: Inhibition of human NEU3 expressed in HEK293 cells by fluorometric high-performance liquid chromatography using 4MU-NeuAc substrate.
For another test, the target named is T2, Sialidase-4 (Homo sapiens, UniProt Q8WWR8).
T2 sequence (Q8WWR8 whole entry): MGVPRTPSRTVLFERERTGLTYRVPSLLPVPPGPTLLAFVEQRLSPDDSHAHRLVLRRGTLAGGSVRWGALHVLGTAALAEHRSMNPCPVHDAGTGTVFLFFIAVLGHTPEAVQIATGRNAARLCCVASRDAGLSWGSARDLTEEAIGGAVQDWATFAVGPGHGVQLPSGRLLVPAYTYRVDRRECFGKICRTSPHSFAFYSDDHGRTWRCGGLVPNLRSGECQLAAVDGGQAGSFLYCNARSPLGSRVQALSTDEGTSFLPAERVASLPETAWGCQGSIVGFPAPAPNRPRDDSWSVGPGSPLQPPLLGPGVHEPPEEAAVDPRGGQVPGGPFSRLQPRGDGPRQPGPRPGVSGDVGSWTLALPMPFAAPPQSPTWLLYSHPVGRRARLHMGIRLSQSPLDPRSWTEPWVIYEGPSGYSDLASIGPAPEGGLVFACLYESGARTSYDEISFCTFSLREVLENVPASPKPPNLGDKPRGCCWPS
As to the kind of experiment: Inhibition of human NEU4 expressed in HEK293 cells by fluorometric high-performance liquid chromatography using 4MU-NeuAc substrate.

The compound `CC(=O)N[C@H]1[C@H]([C@H](O)[C@H](O)CO)OC(C(=O)O)=C[C@@H]1N=C(N)N` [ZANAMIVIR] showed a concentration for half-maximal inhibition (IC50) against Sialidase-1 of 2710 µM.

As to `CC(=O)N[C@H]1[C@H]([C@H](O)[C@H](O)CO)OC(C(=O)O)=C[C@@H]1O` [NEU5AC2EN], on Sialidase-3 [1], inhibition was half-maximal at 70.3 µM (IC50).

As to `CCOC(=O)C1=C[C@@H](OC(CC)CC)[C@H](NC(C)=O)[C@@H](N)C1` [OSELTAMIVIR], the IC50 against Sialidase-1, against Sialidase-3 [2] and against Sialidase-4 was > 10000 µM in each case.

Broadly, the IC50 is the concentration that gives 50% inhibition. Low readings indicate higher potency, high ones lower potency.
